Data from paper PMC9072246 (Acta Pharmaceutica Sinica. B, 2021).
Counter-ions that a name gives are not always drawn.

Legend:
[1] = In vitro drug release by dialysis method; format: physicochemical; details: pH 7.4 PBS, after 3 h
[2] = Drug absorption in rat small intestine; format: in vivo; details: SD rats, intragastric 5 mg/kg DOX equivalent, 2 h, CLSM
[3] = In vivo pharmacokinetic after oral administration; parameters: species or system SD rats

Structure (SMILES): COc1cccc2c1C(=O)c1c(O)c3c(c(O)c1C2=O)C[C@@](O)(C(=O)CO)C[C@@H]3O[C@H]1C[C@H](N)[C@H](O)[C@H](C)O1 [DOX, doxorubicin hydrochloride]
- cumulative release amount of DOX [1]: 90%
- DOX fluorescence signal in small intestine tissue [2]: almost no red fluorescence signal
- Frel, relative bioavailability ([3]; SD rats, oral, 30 mg/kg DOX equivalent, relative to DOX): 100%
- AUC ([3]; SD, rat, plasma, po, 30 mg/kg): 4000 ± 20 ng·h/mL
- Cmax ([3]; SD, rat, plasma, po, 30 mg/kg): 160 ± 10 ng/mL
- MRT ([3]; SD, rat, plasma, po, 30 mg/kg): 24.6 ± 0.34 h
- Tmax ([3]; SD, rat, plasma, po, 30 mg/kg): 1 h
- concentration at 1 h ([3]; SD, rat, plasma, po, 30 mg/kg): 160 ng/mL
- concentration at 8 h ([3]; SD, rat, plasma, po, 30 mg/kg): 130 ng/mL
- half-life ([3]; SD, rat, plasma, po, 30 mg/kg): 757 ± 34.8 min
